Experimental data taken from patent US20250179047A1, “5-[7-(3,4-DIHYDRO-1H-ISOQUINOLINE-2-CARBONYL)-1,2,3,4 TETRAHYDROISOQUINOLIN-6-YL]-1H-PYRROLE-3-CARBOXAMIDE DERIVATIVES, PHARMACEUTICAL COMPOSITIONS CONTAINING THEM AND THEIR USES AS PRO-APOPTOTIC AGENTS” (LES LABORATOIRES SERVIER, priority 2022, published 2025).

Legend:
BCL2 G101V [1] = assay: TR-FRET competitive binding assay, BCL2 G101V; set-up: species or system human; conditions: ratio Ki BCL2 G101V / Ki BCL2 WT
Outline: (§1)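 Ki derived from IC50 (11-point dilution, 520/495 nm emission ratio) for displacing a fluorescein-labelled PUMA peptide (2 or 20 nM). Target was 0.5 nM E. coli-expressed Halo-tagged BCL2 (1-207) or BCLXL (2-196), terbium-labelled on Halo. Incubation 2 h at 23°C in pH 7.5 Hepes with 150 mM NaCl and 5% DMSO.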

BCL2 G101V [2] = molecular target: BCL2 G101V (Homo sapiens, UniProt P10415, G101V); assay: TR-FRET competitive binding assay, BCL2 G101V; conditions: BCL2 G101V; Ki determined from IC50; read-out: TR_FRET EKI_Bcl2 G101V
Outline: as §1

KMS-12-PE Bcl-2 WT = assay: In vitro cytotoxicity CellTiter-Glo 48 h, KMS-12-PE Bcl-2 WT; type: cell-based; conditions: C50 = concentration needed to reach 50% of the cellular viability
Outline: (§2)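 KMS-12-PE myeloma cells were lentivirally transduced with wild-type or G101V-mutant Bcl-2 and sorted by TagRFP. They were exposed to compounds as 11-point dose responses for 48 h at 37 °C, 5% CO2. Viability was read by CellTiter-Glo ATP luminescence, and C50 was the concentration giving 50% viability.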

BCLXL WT = BCLXL WT (Homo sapiens (Human), UniProt Q07817); assay: TR-FRET competitive binding assay, BCLXL WT; conditions: for Ki: BCLXL WT, Ki determined from IC50, read-out: TR_FRET EKI BclxL; for TR_FRET EKI BCLxL/WT selectivty ratio: ratio Ki BCLxL / Ki BCL2 WT
Outline: as §1

BCL2 WT = BCL2 WT (Homo sapiens (Human), UniProt P10415); assay: TR-FRET competitive binding assay, BCL2 WT; conditions: Ki determined from IC50, read-out: TR_FRET EKI_Bcl2 WT
Outline: as §1

KMS-12-PE Bcl-2 G101V = assay: In vitro cytotoxicity CellTiter-Glo 48 h, KMS-12-PE Bcl-2 G101V; type: cell-based; conditions: for Ratio (G101V/WT): C50 KMS-12-PE Bcl-2 G101V over C50 KMS-12-PE Bcl-2 WT; for IC50: 48 h, CellTiter-Glo, C50 = concentration needed to reach 50% of the cellular viability
Outline: as §2

BCL2 D103Y = BCL2 D103Y (Homo sapiens, UniProt P10415, D103Y); assay: TR-FRET competitive binding assay, BCL2 D103Y; conditions: Ki determined from IC50, read-out: TR_FRET EKI_Bcl2 D103Y
Outline: as §1

Sequence of BCLXL WT (Q07817 other isoform, or with tags, fused parts or gaps): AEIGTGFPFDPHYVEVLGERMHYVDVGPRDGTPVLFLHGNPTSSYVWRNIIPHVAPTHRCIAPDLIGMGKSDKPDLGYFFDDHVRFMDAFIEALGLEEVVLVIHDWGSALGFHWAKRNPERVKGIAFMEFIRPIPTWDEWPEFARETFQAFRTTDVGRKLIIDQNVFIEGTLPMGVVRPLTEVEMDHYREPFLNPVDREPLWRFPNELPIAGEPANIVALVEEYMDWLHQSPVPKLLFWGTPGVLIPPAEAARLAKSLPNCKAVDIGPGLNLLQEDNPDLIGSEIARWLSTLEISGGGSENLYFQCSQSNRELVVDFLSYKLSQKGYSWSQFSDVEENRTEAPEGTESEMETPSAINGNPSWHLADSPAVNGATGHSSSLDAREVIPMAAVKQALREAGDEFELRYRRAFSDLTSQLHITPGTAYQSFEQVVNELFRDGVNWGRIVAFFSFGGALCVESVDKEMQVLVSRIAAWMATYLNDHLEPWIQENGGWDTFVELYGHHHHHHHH

TR_FRET EKI G101V/WT selectivty ratio (BCL2 G101V [1]) | Ki (BCL2 G101V [2]) [nM] | Ki (BCLXL WT) [nM] | TR_FRET EKI BCLxL/WT selectivty ratio (BCLXL WT) | Ki (BCL2 WT) [nM] | Ki (BCL2 D103Y) [nM] | Compound | IC50 (KMS-12-PE Bcl-2 WT; Homo sapiens, KMS-12-PE) [µM] | Ratio (G101V/WT) (KMS-12-PE Bcl-2 G101V) | IC50 (KMS-12-PE Bcl-2 G101V; Homo sapiens, KMS-12-PE) [µM] | IC50 (KMS-12-PE Bcl-2 WT) [µM] | IC50 (KMS-12-PE Bcl-2 G101V) [µM]
10.0 | 1.3 | 8.1 | 62.3 | 0.13 | 0.31 | Cc1c(N(C(=O)c2cc(-c3cc4c(cc3C(=O)N3Cc5ccccc5C[C@H]3C)CN(C(=O)Cc3ccc(OCCN5CCOCC5)cc3)CC4)n(C)c2C)c2ccc(O)cc2)cnn1C1CCOCC1 [Example 142, N-(4-hydroxyphenyl)-1,2-dimethyl-N-[5-methyl-1-(oxan-4-yl)pyrazol-4-yl]-5-(7-{[(3R)-3-methyl-3,4-dihydro-1H-isoquinolin-2-yl]carbonyl}-2-(2-{4-[2-(morpholin-4-yl)ethoxy]phenyl}acetyl)-3,4-dihydro-1H-isoquinolin-6-yl)pyrrole-3-carboxamide] | 0.156 | 8.9744 | 1.4 |  | 
5.8 | 2.3 | 6.1 | 15.3 | 0.4 | 1.33 | Cc1c(N(C(=O)c2cc(-c3cc4c(cc3C(=O)N3Cc5ccccc5C[C@H]3CN3CCC(F)(F)CC3)CN(C(=O)Cc3ccc(OCCN5CCOCC5)cc3F)CC4)n(C)c2C)c2ccc(O)cc2)cc(C#N)n1C [Example 130, N-(5-cyano-1,2-dimethyl-1H-pyrrol-3-yl)-5-{7-[(3S)-3-[(4,4-difluoropiperidin-1-yl)methyl]-1,2,3,4-tetrahydroisoquinoline-2-carbonyl]-2-(2-{2-fluoro-4-[2-(morpholin-4-yl)ethoxy]phenyl}acetyl)-1,2,3,4-tetrahydroisoquinolin-6-yl}-N-(4-hydroxyphenyl)-1,2-dimethyl-1H-pyrrole-3-carboxamide] | 0.0055 | 4.69 | 0.0258 |  | 
7.0 | 0.5 | 3.1 | 40.8 | 0.08 | 0.34 | Cc1c(N(C(=O)c2cc(-c3cc4c(cc3C(=O)N3Cc5ccccc5C[C@H]3CN3CCCCC3)CN(C(=O)Cc3ccc(OCCC5COCCO5)cc3F)CC4)n(C)c2C)c2ccc(O)cc2)cc(C#N)n1C (single isomer, unassigned) [Example 175, N-(5-cyano-1,2-dimethyl-pyrrol-3-yl)-5-[2-[2-[4-[2-((2R or S)-1,4-dioxan-2-yl)ethoxy]-2-fluoro-phenyl]acetyl]-7-[(3S)-3-(1-piperidylmethyl)-3,4-dihydro-1H-isoquinoline-2-carbonyl]-3,4-dihydro-1H-isoquinolin-6-yl]-N-(4-hydroxyphenyl)-1,2-dimethyl-pyrrole-3-carboxamide] |  | 6.335 |  | 0.0041 | 0.0261
6.5 | 0.3 | 8.4 | 171.4 | 0.05 | 0.15 | COc1ccc(N(C(=O)c2cc(-c3cc4c(cc3C(=O)N3Cc5ccccc5C[C@H]3CN3CCCCC3)CN(C(=O)Cc3ccc(OCCN5CCOCC5)cc3F)CC4)n(C)c2C)c2ccc(O)cc2)cc1C#N [Example 167, N-(3-cyano-4-methoxyphenyl)-5-[2-(2-{2-fluoro-4-[2-(morpholin-4-yl)ethoxy]phenyl}acetyl)-7-{[(3S)-3-(piperidin-1-ylmethyl)-3,4-dihydro-1H-isoquinolin-2-yl]carbonyl}-3,4-dihydro-1H-isoquinolin-6-yl]-N-(4-hydroxyphenyl)-1,2-dimethylpyrrole-3-carboxamide] | 0.0078 | 8.5769 | 0.0669 |  | 
